The record followed here is patent publication US9464084B2, “P2X7 modulators” (Janssen Pharmaceutica NV, priority 2013, dated 2016).

One test has as its target P2X7 (Homo sapiens (Human), UniProt Q99572). Put plainly: P2X7 antagonism in human PBMCs (LPS + Bz-ATP induced IL-1β release, ELISA).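 As to all read-outs here: PBMCs from donor human blood, with a further 1.5 h incubation of the cells in the assay.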 The format is cell-based. As to conditions: LPS 30 ng/ml, Bz-ATP 0.5 mM; for PBMC 10 μM (% control): compound 10 μM; for PBMC 1 μM (% control): compound 1 μM.
A further test deals with rat P2X7 (Rattus norvegicus (Rat), UniProt Q64663). As to the kind of experiment: Ca2+ flux (FLIPR) in 1321N1 cells expressing recombinant rat P2X7 channel.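 Also: Calcium-4 dye fluorescence change read 180 s after agonist addition, following 30 min cell preincubation with test compound.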 The format is cell-based. The note with it: 250 μM BzATP. In general terms: Calcium flux is commonly read through the fluorescence of an indicator in the cells.
Chain of rat P2X7 (Q64663 whole entry): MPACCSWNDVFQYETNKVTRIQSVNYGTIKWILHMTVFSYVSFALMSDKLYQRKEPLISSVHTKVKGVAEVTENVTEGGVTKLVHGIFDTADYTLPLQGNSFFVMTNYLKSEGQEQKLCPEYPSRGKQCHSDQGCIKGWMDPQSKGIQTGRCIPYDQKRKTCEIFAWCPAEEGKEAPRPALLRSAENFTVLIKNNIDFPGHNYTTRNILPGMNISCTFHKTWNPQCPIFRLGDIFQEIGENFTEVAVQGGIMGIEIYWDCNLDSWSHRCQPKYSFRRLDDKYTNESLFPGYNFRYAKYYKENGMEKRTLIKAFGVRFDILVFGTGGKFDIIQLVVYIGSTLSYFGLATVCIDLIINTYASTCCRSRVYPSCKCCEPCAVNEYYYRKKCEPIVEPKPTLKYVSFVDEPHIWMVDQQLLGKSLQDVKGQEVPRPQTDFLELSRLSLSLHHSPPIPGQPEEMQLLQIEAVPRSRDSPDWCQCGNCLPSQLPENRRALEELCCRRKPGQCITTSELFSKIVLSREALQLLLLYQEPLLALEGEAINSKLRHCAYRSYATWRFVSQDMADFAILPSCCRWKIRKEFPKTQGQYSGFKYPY

One may read the IC50 as the point on the concentration scale where inhibition reaches its midpoint.

Chain of P2X7 (Q99572 whole entry): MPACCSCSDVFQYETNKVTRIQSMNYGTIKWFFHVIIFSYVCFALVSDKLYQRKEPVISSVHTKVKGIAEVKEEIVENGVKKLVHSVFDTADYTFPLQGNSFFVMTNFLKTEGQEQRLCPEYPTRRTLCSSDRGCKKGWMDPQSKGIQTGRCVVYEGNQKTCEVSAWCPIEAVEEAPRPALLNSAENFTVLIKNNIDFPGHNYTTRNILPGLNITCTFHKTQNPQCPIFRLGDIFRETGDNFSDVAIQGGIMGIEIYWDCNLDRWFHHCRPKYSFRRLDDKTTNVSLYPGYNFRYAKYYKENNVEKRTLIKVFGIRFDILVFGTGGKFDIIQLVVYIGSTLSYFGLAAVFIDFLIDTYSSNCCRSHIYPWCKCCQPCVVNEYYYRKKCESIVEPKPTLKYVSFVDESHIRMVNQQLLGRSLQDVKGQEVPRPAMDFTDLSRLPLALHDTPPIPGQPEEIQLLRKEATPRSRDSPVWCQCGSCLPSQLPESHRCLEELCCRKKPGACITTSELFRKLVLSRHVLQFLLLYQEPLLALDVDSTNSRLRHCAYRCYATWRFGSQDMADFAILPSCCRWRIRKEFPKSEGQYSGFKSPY
Method for rat P2X7: Cells were seeded at a density of 25000 cells/well (96-well clear bottom black walled plates) in 100 μl volume/well. On the day of the experiment, cell plates were washed with assay buffer, containing (in mM): 130 NaCl, 2 KCl, 1 CaCl2, 1 MgCl2, 10 HEPES, 5 glucose; pH 7.40 and 300 mOs. After the wash, cells were loaded with the Calcium-4 dye (Molecular Device) and incubated in the dark for 60 minutes. Test compounds were prepared at 250× the test concentration in neat DMSO. Intermediate 96-well compound plates were prepared by transferring 1.2 μL of the compound into 300 μL of assay buffer. A further 3× dilution occurred when transferring 50 μL/well of the compound plate to 100 μL/well in the cell plate. Cells were incubated with test compounds and dye for 30 minutes. […] The fluorescence change was measured 180 seconds after adding the agonist.

`COc1ccnc(-n2nnc3c2CCN(C(=O)c2cccc(C(F)(F)F)c2Cl)C3)c1` [Example 136, (2-Chloro-3-(trifluoromethyl)phenyl)(1-(4-methoxypyridin-2-yl)-6,7-dihydro-1H-[1,2,3]triazolo[4,5-c]pyridin-5(4H)-yl)methanone]: the “PBMC 10 μM (% control)” value at P2X7 was 5.3 % control. Also, on rat P2X7, the 50% inhibitory concentration (IC50) was determined as 133 nM.

Turning to `CC1c2nnn(-c3ncccc3F)c2CCN1C(=O)c1cccc(C(F)(F)F)c1Cl` (centres unmarked) [Example 84, 5-{[2-Chloro-3-(trifluoromethyl)phenyl]carbonyl}-1-(3-fluoropyridin-2-yl)-4-methyl-4,5,6,7-tetrahydro-1H-[1,2,3]triazolo[4,5-c]pyridine], the “PBMC 10 μM (% control)” value on P2X7 is 8.5 % control. Also, the half-maximal inhibitory concentration (IC50) on rat P2X7 was 187 nM.

As for `CC1CN(C(=O)c2cccc(C(F)(F)F)c2Cl)C(C)c2nnn(-c3ccccc3)c21` (centres unmarked) [Example 241, (2-Chloro-3-(trifluoromethyl)phenyl)(4,7-dimethyl-1-phenyl-6,7-dihydro-1H-[1,2,3]triazolo[4,5-c]pyridin-5(4H)-yl)methanone], the “PBMC 10 μM (% control)” value at P2X7 was determined as 6.5 % control. Besides, the IC50 on rat P2X7 is greater than 10000 nM.

Consider `C[C@H]1Cc2c(nnn2-c2cc(F)ccn2)CN1C(=O)c1cccc(Cl)c1Cl` (single isomer, unassigned) [Example 196, (6S*)-5-[(2,3-Dichlorophenyl)carbonyl]-1-(4-fluoropyridin-2-yl)-6-methyl-4,5,6,7-tetrahydro-1H-[1,2,3]triazolo[4,5-c]pyridine], for which the “PBMC 10 μM (% control)” value on P2X7 is −3.1 % control. Also, the IC50 on rat P2X7 is 2620 nM.

With `Cc1ccc(-n2nnc3c2CCN(C(=O)c2cccc(C(F)(F)F)c2Cl)C3C)nc1` (centres unmarked) [Example 301, (2-chloro-3-(trifluoromethyl)phenyl)(4-methyl-1-(5-methylpyridin-2-yl)-6,7-dihydro-1H-[1,2,3]triazolo[4,5-c]pyridin-5(4H)-yl)methanone], the “PBMC 10 μM (% control)” value on P2X7 is −2.2 % control. The IC50 at rat P2X7 is 163 nM.

Regarding `CC1c2ncn(-c3ccc(F)cn3)c2CCN1C(=O)c1cccc(C(F)(F)F)c1F` (centres unmarked) [Example 262, (2-fluoro-3-(trifluoromethyl)phenyl)(1-(5-fluoropyridin-2-yl)-4-methyl-6,7-dihydro-1H-imidazo[4,5-c]pyridin-5(4H)-yl)methanone], the “PBMC 10 μM (% control)” value on P2X7 is given as −3.6 % control. Besides, the IC50 at rat P2X7 was determined as 1550 nM.

With `CC1c2ncn(-c3cnccn3)c2CCN1C(=O)c1cccc(C(F)(F)F)c1F` (centres unmarked) [Example 14, (2-Fluoro-3-(trifluoromethyl)phenyl)(4-methyl-1-(pyrazin-2-yl)-6,7-dihydro-1H-imidazo[4,5-c]pyridin-5(4H)-yl)methanone], the “PBMC 1 μM (% control)” value on P2X7 is 12.8 % control. Also, the IC50 on rat P2X7 stood at 141 nM.

Turning to `CC1Cc2c(nnn2-c2ccccn2)CN1C(=O)c1cccc(Cl)c1Cl` (centres unmarked) [Example 120, 5-[(2,3-Dichlorophenyl)carbonyl]-6-methyl-1-pyridin-2-yl-4,5,6,7-tetrahydro-1H-[1,2,3]triazolo[4,5-c]pyridine], the “PBMC 10 μM (% control)” value on P2X7 was −3.8 % control. Also, the IC50 at rat P2X7 is 55.6 nM.

`CCOc1cccnc1-n1nnc2c1CCN(C(=O)c1cccc(C(F)(F)F)c1Cl)[C@H]2C` (single isomer, unassigned) [Example 317, (S*)-(2-chloro-3-(trifluoromethyl)phenyl)(1-(3-ethoxypyridin-2-yl)-4-methyl-6,7-dihydro-1H-[1,2,3]triazolo[4,5-c]pyridin-5(4H)-yl)methanone]: on P2X7, the “PBMC 10 μM (% control)” value amounted to 4.8 % control. Besides, the IC50 on rat P2X7 is greater than 10000 nM.

For the molecule `C[C@H]1c2ncn(-c3ccccn3)c2CCN1C(=O)c1cccc(Cl)c1Cl` (single isomer, unassigned) [Example 191, (S*)-(2,3-Dichlorophenyl)(4-methyl-1-(pyridin-2-yl)-6,7-dihydro-1H-imidazo[4,5-c]pyridin-5(4H)-yl)methanone], at P2X7, the “PBMC 10 μM (% control)” value was 5.2 % control. Also, the 50% inhibitory concentration (IC50) on rat P2X7 turned out to be 1300 nM.

As for `Cc1cc(C)nc(-n2nnc3c2CCN(C(=O)c2cccc(Cl)c2Cl)C3C)n1` (centres unmarked) [Example 179, (2,3-dichlorophenyl)(1-(4,6-dimethylpyrimidin-2-yl)-4-methyl-6,7-dihydro-1H-[1,2,3]triazolo[4,5-c]pyridin-5(4H)-yl)methanone], the “PBMC 10 μM (% control)” value at P2X7 is listed as −4.3 % control. Also, the IC50 on rat P2X7 is greater than 10000 nM.

Consider `CCOc1cccnc1-n1nnc2c1CCN(C(=O)c1cccc(C(F)(F)F)c1Cl)C2C` (centres unmarked) [Example 258, (2-Chloro-3-(trifluoromethyl)phenyl)(1-(3-ethoxypyridin-2-yl)-4-methyl-6,7-dihydro-1H-[1,2,3]triazolo[4,5-c]pyridin-5(4H)-yl)methanone], for which, on P2X7, the “PBMC 10 μM (% control)” value is −3.2 % control. Moreover, on rat P2X7, the IC50 came out at 4840 nM.

In the case of `C[C@@H]1c2n[nH]c(-c3ncc(F)cn3)c2CCN1C(=O)c1cccc(C(F)(F)F)c1Cl` (single isomer, unassigned) [Example 223, (R*)-(2-chloro-3-(trifluoromethyl)phenyl)(3-(5-fluoropyrimidin-2-yl)-7-methyl-4,5-dihydro-2H-pyrazolo[3,4-c]pyridin-6(7H)-yl)methanone], the “PBMC 10 μM (% control)” value at P2X7 is recorded as 1.8 % control. The IC50 at rat P2X7 is 564 nM.

For the molecule `CCOc1cccnc1-n1nnc2c1CCN(C(=O)c1cccc(C(F)(F)F)c1Cl)[C@@H]2C` (single isomer, unassigned) [Example 316, (R*)-(2-chloro-3-(trifluoromethyl)phenyl)(1-(3-ethoxypyridin-2-yl)-4-methyl-6,7-dihydro-1H-[1,2,3]triazolo[4,5-c]pyridin-5(4H)-yl)methanone], the “PBMC 10 μM (% control)” value at P2X7 was −9.6 % control. Besides, the half-inhibitory concentration (IC50) at rat P2X7 was 2210 nM.

As for `Cc1nc(-n2nnc3c2CCN(C(=O)c2cccc(C(F)(F)F)c2Cl)C3C)ncc1F` (centres unmarked) [Example 230, (2-chloro-3-(trifluoromethyl)phenyl)(1-(5-fluoro-4-methylpyrimidin-2-yl)-4-methyl-6,7-dihydro-1H-[1,2,3]triazolo[4,5-c]pyridin-5(4H)-yl)methanone], the “PBMC 10 μM (% control)” value at P2X7 came to 2.9 % control. Also, the IC50 on rat P2X7 turned out to be 89.5 nM.

For `Cc1nc(-n2nnc3c2CCN(C(=O)c2cccc(C(F)(F)F)c2Cl)[C@@H]3C)ncc1F` (single isomer, unassigned) [Example 305, (R*)-(2-chloro-3-(trifluoromethyl)phenyl)(1-(5-fluoro-4-methylpyrimidin-2-yl)-4-methyl-6,7-dihydro-1H-[1,2,3]triazolo[4,5-c]pyridin-5(4H)-yl)methanone], the “PBMC 10 μM (% control)” value on P2X7 was determined as 0.9 % control. Further, on rat P2X7, the IC50 was 19.7 nM.

Consider `C[C@@H]1c2ncn(-c3ccccn3)c2CCN1C(=O)c1cccc(Cl)c1Cl` (single isomer, unassigned) [Example 192, (R*)-(2,3-Dichlorophenyl)(4-methyl-1-(pyridin-2-yl)-6,7-dihydro-1H-imidazo[4,5-c]pyridin-5(4H)-yl)methanone], for which, on P2X7, the “PBMC 10 μM (% control)” value was −6.3 % control. Further, the IC50 on rat P2X7 came out at 10000 nM.

With `CCc1cccnc1-n1nnc2c1CCN(C(=O)c1cccc(C(F)(F)F)c1Cl)C2C` (centres unmarked) [Example 254, (2-Chloro-3-(trifluoromethyl)phenyl)(1-(3-ethylpyridin-2-yl)-4-methyl-6,7-dihydro-1H-[1,2,3]triazolo[4,5-c]pyridin-5(4H)-yl)methanone], the “PBMC 10 μM (% control)” value at P2X7 is listed as 0.9 % control. Besides, the IC50 at rat P2X7 was 4260 nM.

For `C[C@H]1Cc2c(nnn2-c2ncc(F)cn2)CN1C(=O)c1cc(C(F)(F)F)ccc1F` (single isomer, unassigned) [Example 232, (S*)-(2-fluoro-5-(trifluoromethyl)phenyl)(1-(5-fluoropyrimidin-2-yl)-6-methyl-6,7-dihydro-1H-[1,2,3]triazolo[4,5-c]pyridin-5(4H)-yl)methanone], the “PBMC 10 μM (% control)” value on P2X7 came out at 7.5 % control. Besides, the 50% inhibitory concentration (IC50) at rat P2X7 was greater than 10000 nM.

In the case of `CC1Cc2c(nnn2-c2cc(F)ccn2)CN1C(=O)c1cccc(Cl)c1Cl` (centres unmarked) [Example 173, 5-[(2,3-Dichlorophenyl)carbonyl]-1-(4-fluoropyridin-2-yl)-6-methyl-4,5,6,7-tetrahydro-1H-[1,2,3]triazolo[4,5-c]pyridine], the “PBMC 10 μM (% control)” value at P2X7 is 8.8 % control. Besides, at rat P2X7, the IC50 was 10.2 nM.

Regarding `CCOC(=O)C1c2ncn(-c3ccccc3)c2CCN1C(=O)c1cccc(Cl)c1Cl` (centres unmarked) [Example 27, Ethyl 5-(2,3-dichlorobenzoyl)-1-phenyl-4,5,6,7-tetrahydro-1H-imidazo[4,5-c]pyridine-4-carboxylate], the “PBMC 1 μM (% control)” value on P2X7 amounted to 39.2 % control. Moreover, at rat P2X7, the IC50 came to 1890 nM.

As to `C[C@@H]1Cc2c(nnn2-c2cc(F)ccn2)CN1C(=O)c1cccc(Cl)c1Cl` (single isomer, unassigned) [Example 195, (6R*)-5-[(2,3-Dichlorophenyl)carbonyl]-1-(4-fluoropyridin-2-yl)-6-methyl-4,5,6,7-tetrahydro-1H-[1,2,3]triazolo[4,5-c]pyridine], on P2X7, the “PBMC 10 μM (% control)” value is on record as 14.4 % control. For the same molecule, at rat P2X7, the half-maximal inhibitory concentration (IC50) amounted to 10.8 nM.

For `CC1c2ncn(-c3ccc(F)cn3)c2C=CN1C(=O)c1cccc(C(F)(F)F)c1Cl` (centres unmarked) [Example 321, (2-chloro-3-(trifluoromethyl)phenyl)(1-(5-fluoropyridin-2-yl)-4-methyl-1H-imidazo[4,5-c]pyridin-5(4H)-yl)methanone], on P2X7, the “PBMC 10 μM (% control)” value stood at 14.1 % control. Moreover, the IC50 on rat P2X7 was determined as 589 nM.

For the molecule `Cc1ccc(-n2nnc3c2CCN(C(=O)c2cccc(C(F)(F)F)c2Cl)[C@@H]3C)nc1` (single isomer, unassigned) [Example 255, (R*)-(2-chloro-3-(trifluoromethyl)phenyl)(4-methyl-1-(5-methylpyridin-2-yl)-6,7-dihydro-1H-[1,2,3]triazolo[4,5-c]pyridin-5(4H)-yl)methanone], the “PBMC 10 μM (% control)” value on P2X7 is on record as −5.5 % control. For the same molecule, at rat P2X7, the IC50 is 211 nM.

For `O=C(c1cccc(Cl)c1Cl)N1CCc2c(-c3ccncc3)n[nH]c2C1` [Example 115, 6-[(2,3-Dichlorophenyl)carbonyl]-3-pyridin-4-yl-4,5,6,7-tetrahydro-2H-pyrazolo[3,4-c]pyridine], the “PBMC 10 μM (% control)” value at P2X7 is listed as −3.3 % control. The IC50 at rat P2X7 is greater than 10000 nM.
